From patent USRE39682E1, “Farnesyl derivatives and pharmaceutical compositions containing them” (Ramot at Tel Aviv University Ltd., priority 1993, dated 2007) come the findings set out here.

In one data set the test system is ras proteins. Briefly: Methylation of immunoprecipitated ras proteins in intact ras-transformed rat1 cells. The data set is classed as cell-based, rat. As to conditions: 100 μM, FIG. 4. The text has this: HEC1A, rail, ras-transformed rail and B16F10 melanoma cells were also used for metabolic labelling of endogenous proteins with 100-300 μCi/ml [methyl-^3H]methionine which was also indicative of PPMTase activity. Metabolic labelling procedures were as detailed elsewhere (Hakiai et al., supra. (1991); Lenner et al., supra. (1992)), and immunoprecipitation of ras with Y13-159 Ab were as detailed by Clarke et al. (Proc. Natl. Acad. Sci. USA, 85, 4643-4647 (1988)).
While the above Table II determines the PPMTase activity by assaying the methylation of a synthetic substrate, FIG. 3 determines this activity by methylation of various endogenous ras-like prenylated GTP-binding proteins present in intact HEC1A, ras-transformed rat1 and melanoma cells, with and without 100 μM of FTA or FTS. […] Use of [α-P^32]

Data set [1] relates to C57 black mice. The note with it: mouse, in vivo.
Protocol: (§1) Toxicity tests in intact animals were performed with C57 black and with bulb-C mice.
(§2) Four groups, each comprising 9 mice, were used. Animals of group one received 100 μl s.c. injections of 150 μM FTS in salient solution containing 1% DMSO (0.21 mg drug/kg body weight). The drug was injected every 3 days for 2 weeks. Group two, which served as controls, received the solvent/saline solution for the same period of time.
Data set [2] relates to Rat1 cells stimulated with EGF or bFGF. Nature of the data set: Mitogenic effect of EGF and bFGF in Rat1 cells. Format: cell-based, rat. As to conditions: 25 μM; for Number of cells (% of control): day 5. Here is the method: The potent […] inhibitor FTS was used to examine selectivity of the drugs towards ras-dependent growth-signaling pathways. In these experiments cells transformed by Erb-B2, that acts upstream of ras in the ras pathway, and cells transformed by V-raf or by T-antigen, that act independently of ras, were studied. The cells were placed at a density of 2×10^3 cells/well and received on the day of plating either solvent (controls) or 25 μM FTS. Cells were counted on day 5 of the experiment. […] At this concentration, however, no effects of FTS on the growth of V-tar transformed or of T-antigen-transformed cells were observed. The results in Table VI also indicate that the mitogenic effect of bFGF and EGF in Rat1 cells is inhibited by FTS.

Data set [3] deals with V-raf transformed 3T3 cells. Briefly: Growth of V-raf transformed cells. The data set is classed as cell-based. The note with it: 25 μM. The source says: The cell lines employed were rat1, -EJ, which are rat1 cells stably expressing Val- 12 activated human Ha-ras gene (Land H. et al., Nature, 304, 596-602, (1983)); V-raf-3T3, which are 3T3 cells stably expressing the V-raf gene (Xu, N., et al., Proc. Natl. Acad. Sci., 90, 6741-6745); RB-22, which are 3T3 cells stably expressing the rat Erb-B2 gene (Peles, et al., EMBO J., 10, 2077-2086 (1991)) CO6O cells (SV40-CHO), which are CHE cells stably expressing the SV-40 T-antigen gene (Lavi, Proc. Natl. Acad. Sci., 78, 6144-6148 (1981)); human endometrial carcinoma cell line HEC1A, which are cells that express activated K-ras (Enomoto T., Cancer Res., 50, 6139-6145; mouse B16F10 melanoma cells, rat pheochromocytoma PC12 cells, […] cells CHE and COS cells.
HEC1A, V-raf-3T3 and SV40-CHE cells were grown in Dulbecco's modified Eagle medium (DMEM) containing 10% fetal calf serum (FCS), 4 mM L-glutamine, 10 μg/ml streptomycin and 10 U/ml penicillin. Rat1 and -EJ cells were grown in the same medium except that it was supplemented with 12.5 U/ml nyostatin. RB-22 cells were grown in modified DMEM (1 mM sodium pyruvate, 20 mM sodium bicarbonate)/10% FCS containing 4 mM L-glutamine, […] streptomycin, 10 U/ml penicillin. […]
The potent PPMTase inhibitor FTS was used to examine selectivity of the drugs towards ras-dependent growth-signaling pathways. […] Cells were counted on day 5 of the experiment.

In data set [4] the test system is C57 black mice. Briefly: In vivo toxicity, repeated s.c. or i.p. injection. The note with it: 0.21 mg/kg s.c. or i.p. every 3 days for 2 weeks.
Protocol: as §1, §2

For `CC(C)=CCC/C(C)=C/CC/C(C)=C/CSc1ccccc1C(=O)O` [FTS, (3,7,11-trimethyl-dodeca-2,6,10-trienyl)-2-thiobenzoic acid], the “inhibition of methylation of ras proteins” value with ras proteins is recorded as “inhibits”. In the data set on C57 black mice [1], the “toxicity to C57 mice” value was “not toxic”. Also, in data set [2], the “effect on the mitogenic effect of bFGF and EGF in Rat1 cells” value is reported as “inhibited”. The “Number of cells (% of control)” value in data set [2] (Ras1 + 10 mg/ml ECP) is 40 ± 5 % of control; in data set [2] (Ras1 + 50 mg/ml bPCP), 42 ± 3 % of control; in data set [3] (Y-ref transformed 3T2, day 5) it was 93 ± 8 % of control. The “effect on growth of V-raf transformed cells” value in data set [3] is “no effects”. Moreover, in the data set with C57 black mice [4], the “deaths out of the 18 drug treated animals” value is recorded as “one”.
